Results from US11690828B2, “Treatment of CNS diseases with sGC stimulators” (Cyclerion Therapeutics, Inc., priority 2016, dated 2023).

Legend:
sGC = test: cGMP neuronal cell-based assay; details: rat primary hippocampal neurons; 30 μM DETA-NO; 50% of high control (10 μM Compound Y); read-out: sGC-neuron Abs EC50
Experimental: Rat primary neurons were isolated from fetuses of 18-day pregnant Sprague-Dawley females. The fetuses were collected in Hanks' balanced salt solution (HBSS) and brains were rapidly removed. The cerebral hippocampi were isolated and mechanically fragmented. Further tissue digestion was performed with 0.25% (wt/vol) trypsin solution in HBSS without Ca2+ and Mg2+ for 15 min at 37° C. After trypsination, cells were washed and resuspended in neurobasal medium supplemented with 0.5 mM L-glutamine, 12.5 uM glutamic acid, 2% B-27 and 100 U/mL penicillin, and 100 μg/mL streptomycin. Cells were plated at a density of 4×10^4 cells/well in a poly-D-lysine coated 384-well flat clear-bottom plate (Corning Cat No 354662). Cells were incubated 6-7 days at 37° C. in a humidified chamber with 5% CO2. Media was removed and cells were washed 1× with HBSS containing Ca2+ and Mg2+, and replaced with 40 uL HBSS containing 0.5 mM IBMX, and incubated for 15 minutes at 37° C. 10 uL of a 5× stock of test compounds with diethylenetriamine NONOate (DETA-NO) was added. Final concentration of DETA-NO was 30 μM. Cells were incubated for 20 min at 37° C. Medium was removed, 50 uL of ice-cold 10% acetic acid was added, and incubated for 60 minutes at 4° C. Following centrifugation at 4° C. for 5 minutes at 1000×g to pellet cell debris, the supernatant was aspirated to a clean plate and the samples were analyzed for cGMP content. cGMP concentrations were determined from each sample using LC-MS/MS.
Data were normalized to a high control using the following equation: 100*(Sample−Low Control)/(High Control−Low Control), where the low control is the average of 15 samples treated with 1% DMSO, and the high control is the average of 15 samples treated with 10 μM of the known sGC stimulator Compound Y (depicted in Example 2). Data were fit using a 4-parameter fit (log(agonist) vs. response—variable slope) using GraphPad Prism Software v.5. n=2 for all compounds. […]

[1] = Rat cerebrospinal fluid (CSF) pharmacokinetic properties; type: in vivo; details: male, Sprague-Dawley; for concentration at 1 h: CSF, PO 10 mg/kg in PEG400, 1 h post-dosing, read-out: CSF Conc (nM @ 1 h); for Kp uu at 1 h: PO 10 mg/kg, unbound CSF / unbound plasma
Experimental: PK in rats was determined following oral dosing. For the oral (PO) experiments, a group of 6 male Sprague-Dawley rats with an indwelling catheter placed in the cisterna magna were used. The PO group was dosed with 3 or 10 mg/kg of a compound formulated as a solution in PEG400. PO doses were administered by oral gavage and delivered to the stomach using a syringe and gavage tube. Following oral dosage administration, the gavage tube was flushed with approximately 0.5 mL of water to ensure complete delivery of the full dose.
Plasma and CSF samples were collected as follows: samples of CSF and blood were collected at 1 hour and 2 hours post-dosing. CSF samples (0.05 mL) were collected through the intracisternal catheter. Blood samples (0.25 mL) were collected through retro-orbital sampling. These samples were kept on ice until processed for plasma. Blood samples were centrifuged at 3200 rpm for 5 minutes at approximately 5° C. within 1 hour of collection. Plasma was directly transferred to a 96-well plate tube (0.125 mL). Plug caps were placed on the tubes and the tubes frozen at approximately −70° C. and stored until analysis.
Plasma was collected and analyzed for the presence of compound.
The compound in question and the internal standard were extracted from plasma and CSF by precipitation. Samples were analyzed using liquid chromatography (LC) with tandem mass spectrometric detection (MS/MS) using electrospray ionization. The standard curve range was from 1 to 1000 ng/mL.
Kp,uu is defined as the concentration ratio of unbound drug in CSF to unbound drug in plasma. Unbound drug in plasma (or free plasma concentration) is calculated by multiplying the total plasma concentration by the unbound fraction as determined by plasma protein binding. The CSF concentration is then divided by the free plasma concentration to determine the Kp,uu. (See e.g., Di et al., J. Med. Chem., 56, 2-12 (2013)).

male Long Evans rats = test: Novel Object Recognition (NOR) test, MK-801-induced memory deficit; type: in vivo, rat
rats [2] = test: Kaolin - gait score; type: in vivo, rat; details: internal reference Indomethacin 10 mg/kg p.o.
Experimental: Kaolin. Induction: In rats, unilateral arthritis was induced by an intra-articular injection of a 10% kaolin suspension into the knee joint of the right hind paw under gas anesthesia (3.5% isoflurane/3 L/min). Gait score: The gait score will be evaluated 3 h 30 min after kaolin administration by:
2: intermittent raising of the paw
(§1) Testing: 120 minutes after treatment. N=4/model/test. Results are expressed for each group as a percentage of activity calculated from the mean value of the vehicle-treated animals and compared to naïve animals, control paw, or cut-off value, depending on the test.

rats [3] = test: Carrageenan - paw pressure test; type: in vivo, rat; details: internal reference Indomethacin 30 mg/kg p.o.
Experimental: (§2) Paw Pressure Test. Static mechanical hyperalgesia is measured. This test requires the application of an increasing pressure on the hind paws between a flat surface and a blunt pointer. To evaluate the analgesic action of a compound, one hind paw of the animal was inflamed by an injection or injured by ligation, while the other hind paw was not injured or inflamed. The apparatus exerted a steadily increasing force on the hind paws. The reaction threshold was determined as the pressure (g) required to elicit paw withdrawal and/or vocalization. The animals were gently handled by the experimenter and static mechanical hyperalgesia were assessed two times for both hind paws.
Carrageenan. Induction: Three hours before assessment of the nociceptive threshold using the paw pressure test 100 μL of a 2% carrageenan suspension was injected into the plantar aspect of the right hind paw. The Paw Pressure test was then conducted as described above.
as §1

rats [4] = test: Formalin test - score; type: in vivo, rat; details: internal reference Morphine 4 mg/kg s.c.
Experimental: Formalin Test. 2.5% formalin solution was injected by subplantar route into the right hind paw. Scoring of pain behavior was performed in rats for 36 minutes every 3 minutes according to the following scores:
0=normal behavior of the injected hind limb to support the body
1=slight touching of the injected paw on the floor to lightly support or not support the body
2=total withdrawal of the injected paw
3=licking, biting or shaking of the injected paw.
as §1

rats [5] = test: Brennan model - electronic Von Frey test; type: in vivo, rat; details: internal reference Morphine 4 mg/kg s.c.
Description: Brennan Model. Surgery: Surgery was done under gas anesthesia (2.5% isoflurane/3 L/min). For all rats, the plantar aspect of the left hind paw was exposed and a 1 cm longitudinal incision was made using a surgical blade, through the skin and fascia of the plantar aspect of the foot, starting 0.5 cm from the proximal edge of the heel and extending toward the toes. The plantaris muscle was elevated and incised longitudinally whereas the insertions remained intact. After hemostasis with gentle pressure, the skin was stitched up with two sutures. After surgery, animals recovered in their cages.
Electronic Von Frey Test. Tactile allodynia was assessed using the electronic Von Frey test 24 h after surgery. The test requires the application of an increasing pressure onto the plantar aspect of the hind paws. The apparatus exerted a steady force on the hind paws. Reaction thresholds were determined as the pressure (g) required to elicit paw withdrawal. Each reaction threshold measurement was repeated three times for both hind paws with intervals of approximately 2 to 3 mins.
as §1

rats [6] = test: Bennett model - paw pressure test; type: in vivo, rat; details: internal reference Morphine 3 mg/kg s.c.
Experimental: as §2
Bennett Model. Peripheral mononeuropathy was induced by loose ligation of the sciatic nerve in anesthetized rats (Xylazine 10 mg/kg i.p., ketamine 60 mg/kg i.p.) on D−14. Briefly, the common sciatic nerve was exposed at the level of the middle of the thigh by blunt dissection through the biceps femoris. Proximal to the sciatic trifurcation, four ligatures were loosely tied around it with about 1-mm spacing. […]
Testing: 120 minutes after treatment. […] Results are expressed for each group as a percentage of activity calculated from the mean value of the vehicle-treated animals and compared to naïve animals, control paw, or cut-off value, depending on the test.

Healthy rats [7] = test: Healthy rats - tail flick test; type: in vivo, rat; details: internal reference Morphine 4 mg/kg s.c.
Experimental: Tail Flick Test. A radiant heat was applied on the tail. When the rat felt discomfort, it reacted by a sudden tail movement (tail flick) which automatically stopped the stimulation and the timer for the measurement by the animal reaction time or nociceptive reaction latency (period from the beginning of the stimulation until detection of the response of the animal). A cut-off was previously fixed at 10 sec in order to prevent tissue damage.
as §1

Healthy rats [8] = test: Healthy rats - paw pressure test; type: in vivo, rat; details: internal reference Morphine 4 mg/kg s.c.
Experimental: as §2, §1

With Fc1ccccc1Cc1nc(-c2nc(C(F)(F)F)n[nH]2)n2ccccc12 [Compound I-3] the EC50 (sGC) was ≤ 100 nM.
Compound Cc1ncc(Cc2nc(-c3nc(C(F)(F)F)n[nH]3)n3ccccc23)cn1 [Compound I-4] has a concentration at 1 h [1] of 180 nM and a Kp uu at 1 h [1] of 0.96.
For Fc1ccccc1Cc1nc(-c2nc(C(F)(F)F)n[nH]2)c2cccnn12 [Compound I-6], the concentration at 1 h [1] was 0.78 nM and the Kp uu at 1 h [1] was < 0.01.
In the case of COc1ccc2c3c1O[C@H]1C[C@@H](O)C=C[C@@]31CCN(C)C2 [Galantamine, reference compound], the “Recognition Index, Mean (0 to 3 minute time bin)” value (male Long Evans rats; Galantamine 1 mg/kg IP + MK-801 0.1 mg/kg IP) is reported as 73.33%.
With COc1ccc2c(c1)c(CC(=O)O)c(C)n2C(=O)c1ccc(Cl)cc1 [Indomethacin, reference compound] the “% of activity vs. vehicle, kaolin gait score” value (rats [2]) was 58% and the “% of activity vs. vehicle, carrageenan paw pressure test” value (rats [3]) was 100%.
For C[C@]12N[C@H](Cc3ccccc31)c1ccccc12 [MK-801, MK-801 (Dizocilpine), reference compound], the “Effect on recognition memory, 0-3 minute time range” value (male Long Evans rats; MK-801 0.1 mg/kg) was “strong memory deficit”, the “Effect on recognition memory, 0-5 minute time range” value (male Long Evans rats; MK-801 0.1 mg/kg) was “strong memory deficit” and the “Recognition Index, Mean (0 to 3 minute time bin)” value (male Long Evans rats; Vehicle + MK-801 0.1 mg/kg IP, Vehicle + Saline control 73.78) was 56.92%.
For CN1CC[C@]23c4c5ccc(O)c4O[C@H]2[C@@H](O)C=C[C@H]3[C@H]1C5 [Morphine, reference compound], the “% of activity vs. vehicle, formalin test score (early phase)” value (rats [4]) was 57%, the “% of activity vs. vehicle, formalin test score (late phase)” value (rats [4]) was 38% and the “% of activity vs. vehicle, Brennan model electronic Von Frey test” value (rats [5]) was 88%. The “% of activity vs. vehicle, Bennett model paw pressure test” value (rats [6]) was 191%, the “% of activity vs. vehicle, healthy rats tail flick test” value (Healthy rats [7]) was 66% and the “% of activity vs. vehicle, healthy rats paw pressure test” value (Healthy rats [8]) was 69%.
